The results in this text go back to PubChem BioAssay (NCI).

Common to all, as to experiment: NCI tumour cell line growth inhibition, 48 h
Assay [1] has as its system CAKI-1 renal.
Assay [2] concerns NCI-H23 lung.
For assay [3], the system named is T-47D breast.
In assay [4] the test system is RXF 393 renal.
The subject of assay [5] is TK-10 renal.
In assay [6] the test system is HCC-2998 colon.
Assay [7] deals with 786-0 renal.
For assay [8], the system named is HOP-92 NSCLC.
In assay [9] the test system is UO-31 renal.
Assay [10] concerns HL-60(TB) leukemia.

Values joined by “and” are separate entries in the source; they are usually repeats but may differ in a detail not shown here. Equal entries are not always repeated.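 1) Cells in 96-well plates. 2) Compound, 48 h, 5 concentrations. 3) Linear interpolation between surrounding doses. 4) Unreached endpoint = highest concentration. The concentration for 50% growth inhibition is given as GI50. TGI: total growth inhibition.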 Where only a bound is given, the exact number is not on record here.

With `CCN1/C(=C/C=C/C=C/c2sc3ccccc3[n+]2CC)Sc2ccccc21`, the GI50 in assay [1] was 0.376 µM; in assay [2], 0.164 µM; in assay [3], 0.101 µM; in assay [4], 0.805 µM; in assay [5], 0.472 µM; in [6], 0.381 µM. The GI50 was 0.516 µM in assay [7], 0.32 µM in [8], 1.66 µM in assay [9] and 0.143 µM in assay [10]. In addition, the TGI was determined as 2.29 µM in assay [1]; 2.33 µM in assay [2]; 0.669 µM in assay [3]; 2.53 µM in [4]; 3.97 µM in [5]; 1.69 µM in [6]. The TGI in assay [7] is 1.71 µM; in [8], 3.27 µM; in assay [9], 4.4 µM; in assay [10], 0.656 µM.
On to `CCN1CCC2(CC1)NC(=O)c1c(c3ccc(Cl)c(Cl)c3n1C)C2C#N` (configuration not stated), for which the GI50 is 2.25 µM in [1]; 3.71 µM in [2]; 3.09 µM in assay [3]; 1.24 µM in [4]; 1.8 µM in assay [5]; 1.73 µM in [6]. The GI50 is 1.7 µM in [7], > 100 µM in [8], 1.84 µM in assay [9] and 2.01 µM in assay [10]. In addition, the TGI in [1] came out at 8.23 µM; in assay [2], 16 µM; in [3], 13.7 µM; in [4] it was 4.13 µM; in [5], 5.38 µM; in [6], 3.26 µM. In addition, the TGI was 3.13 µM in assay [7], > 100 µM in [8], 5.03 µM in assay [9] and 6.02 µM in assay [10].
In the case of `COc1cc(OC)cc(-c2ccc(-c3ccc(C(=N)N)s3)s2)c1`, the GI50 in assay [1] was 1.38 µM; in [2], 1.66 µM; in assay [3], 1.36 µM; in assay [4], 1.25 µM; in [5], 1.84 µM; in [6], 1.03 µM. In addition, the GI50 in assay [7] is 1.23 µM; in assay [8], 0.883 µM and 0.528 µM; in assay [9], 1.51 µM; in assay [10], 1.23 µM and 0.174 µM. Further, the TGI in assay [1] was 2.78 µM; in [2], 3.34 µM; in [3], 3.15 µM; in assay [4], 2.99 µM; in assay [5] it was 3.39 µM; in assay [6], 2.58 µM. For the same compound, the TGI was 3.06 µM in assay [7]; 2.39 µM and 2.1 µM in assay [8]; 3.31 µM in assay [9]; 2.74 µM and 0.374 µM in assay [10].
In the case of `Nc1ccc(-c2ccc(Nc3cc(S(=O)(=O)O)c(N)c4c3C(=O)c3ccccc3C4=O)cc2)c(S(=O)(=O)O)c1`, the TGI in assay [1], in assay [2], in assay [3], in [4], in assay [5] and in assay [6] was > 100 µM in each case. The TGI in assay [7], in assay [8], in assay [9] and in assay [10] was > 100 µM in each case.
As to `Cc1cc(Nc2cc(CN3CCOCC3)c3nc(C)c(Cc4ccc(Cl)cc4F)n3n2)n[nH]1`, the GI50 in assay [1] is 1.74 µM; in [2], 1.72 µM; in assay [3] it was 1.23 µM; in assay [4], 0.545 µM; in assay [5] it was 2.14 µM; in assay [6] it was 1.49 µM. Moreover, the GI50 in [7] is 1.67 µM; in assay [8] it was 1.65 µM; in assay [9], 1.41 µM; in assay [10], 0.768 µM. The TGI in assay [1] amounted to 4.67 µM; in assay [2], 8.35 µM; in assay [3] it was 16.2 µM; in [4] it was 2.13 µM; in [5], 6.61 µM; in [6] it was 3.13 µM. Besides, the TGI in [7] was found to be 6.18 µM; in assay [8], 5.01 µM; in assay [9], 2.97 µM; in assay [10], 2.86 µM.
Consider `S=c1nc[nH]c2nc[nH]c12`, for which the TGI in [1] is > 100 µM and 436 µM and > 750 µM; in assay [2], > 100 µM and 271 µM and > 750 µM; in [3], > 627 µM; in [4] it was > 100 µM and 629 µM and > 750 µM; in [5], > 100 µM and 549 µM and 332 µM; in assay [6] it was > 100 µM and 463 µM and > 750 µM. The TGI in assay [7] was > 750 µM; in assay [8], 82.2 µM and 285 µM; in assay [9] it was > 100 µM and 619 µM. In addition, the GI50 was 3.11 µM and 7.97 µM in assay [2]; 0.812 µM and 5.81 µM in [3]; 58 µM and 10.2 µM in [5]; 2.93 µM and 11.7 µM in [6]; 0.7 µM and 5.34 µM in assay [7]; 0.578 µM in assay [8]. The GI50 was 4.1 µM and 5.55 µM in assay [9]; 3.11 µM and 3.31 µM in assay [10].
For the compound `COc1ccc2c(O)c(/C=C3\N=Nc4ncccc43)oc2c1C[C@H]1CCNC[C@H]1F`, the GI50 in [1] was 0.161 µM; in assay [2] it was 0.475 µM; in [3] it was 3.46 µM; in [4], 0.183 µM; in assay [5], 0.479 µM; in assay [6], 2.38 µM. Besides, the GI50 in [7] was 0.241 µM; in [8], 2.39 µM; in assay [9], 0.146 µM; in assay [10], 0.246 µM. The TGI in assay [1] amounted to 11.3 µM; in assay [2], 4.7 µM; in assay [3], 21.1 µM; in assay [4], 0.55 µM; in assay [5], 9.13 µM; in assay [6], 11.5 µM. The TGI in [7] came out at 1.61 µM; in assay [8], 11.3 µM; in assay [9], 3.16 µM; in assay [10], 0.625 µM.
As to `C=CC(=O)NCCOc1cccc(Nc2cc(NCCCNC(=O)C3CCC3)c(Br)cn2)c1`, the GI50 in assay [1] was 0.434 µM; in assay [2], 1.07 µM; in assay [3] it was 4.49 µM; in [4] it was 0.283 µM; in assay [5], 1.6 µM; in [6], 2.49 µM. The GI50 in [7] was 0.989 µM; in [8], 0.826 µM; in assay [9] it was 0.372 µM; in assay [10] it was 0.989 µM. Moreover, the TGI turned out to be 1.75 µM in assay [1]; 7.16 µM in assay [2]; 22.7 µM in assay [3]; 0.639 µM in [4]; 7.77 µM in assay [5]; 7.59 µM in assay [6]. Also, the TGI in assay [7] was > 25 µM; in assay [8], > 25 µM; in assay [9] it was 1.11 µM; in assay [10], > 25 µM.
